Experimental findings from ChEMBL document CHEMBL1201862, “PubChem BioAssay data set” (2004) are described below.

Test systems include SF-539; SK-MEL-2; LOX IMVI; SK-MEL-28; K562; SW-620; SNB-19; OVCAR-3; RXF 393; NCI-H23; TK-10; ACHN; M14; SN12C; SK-OV-3; HOP-62; Malme-3M; UACC-257; HL-60; SF-295.
Test in all cases: growth of human tumour cells (NCI), 48 h

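48-hour exposure; five concentrations; linearly interpolated endpoints. GI50: concentration for 50% inhibition of growth.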 Active and inactive are the calls of the source. Cut-off read from the data, not from the text of the source: active = GI50 up to about 1.1 µM and inactive = higher.

Turning to `CC1S(=O)(=O)OCCOS1(=O)=O`, the GI50 in the experiment on SF-539 is 46.6 µM (inactive); with SK-MEL-2, > 100 µM (inactive); in the experiment with LOX IMVI, 52.2 µM (inactive); in the experiment with SK-MEL-28 it was > 100 µM (inactive); in the experiment on K562, > 100 µM (inactive); in the experiment on SW-620, > 100 µM (inactive). Further, the GI50 with SNB-19 was 39.7 µM (inactive); in the experiment with OVCAR-3, 74 µM (inactive); with RXF 393, > 73.5 µM (inactive); in the experiment with NCI-H23 it was > 76.9 µM (inactive); in the experiment with TK-10, > 100 µM (inactive); in the experiment with ACHN, 46.5 µM (inactive). Moreover, the GI50 in the experiment with M14 is > 100 µM (inactive); in the experiment on SN12C, 77.4 µM (inactive); with SK-OV-3, > 100 µM (inactive); in the experiment with HOP-62, > 100 µM (inactive); in the experiment on Malme-3M it was > 100 µM (inactive); in the experiment on UACC-257, > 94.2 µM (inactive). For the same compound, the figures for the GI50 with HL-60 and with SF-295 were 29.7 µM (inactive) and 50.4 µM (inactive), respectively.

For the compound `CCOC(=O)C1=C(NC)OCC1=O`, the GI50 with SF-539, with SK-MEL-2, in the experiment with LOX IMVI, with SK-MEL-28, in the experiment on K562 and with SW-620 was > 100 µM (inactive) in each case. Further, the GI50 in the experiment with SNB-19, in the experiment on OVCAR-3, in the experiment on RXF 393, in the experiment with NCI-H23, in the experiment on TK-10 and with ACHN was > 100 µM (inactive) in each case. Further, the GI50 in the experiment on M14, with SN12C, with SK-OV-3, with HOP-62, with Malme-3M and with UACC-257 was > 100 µM (inactive) each time. Besides, the GI50 in the experiment with HL-60 and in the experiment on SF-295 was > 100 µM (inactive) each time.

For the compound `CCOC(=O)C1C(=O)CC(O)(c2ccccc2)C(C(=O)OCC)C1c1ccc(OC)cc1` (stereo not given), the GI50 is 15.6 µM (inactive) in the experiment with SF-539; 20.1 µM (inactive) in the experiment with SK-MEL-2; 18.7 µM (inactive) with LOX IMVI; 28.8 µM (inactive) with SK-MEL-28; 5.27 µM (inactive) with K562; 12.2 µM (inactive) in the experiment on SW-620. In addition, the GI50 in the experiment on SNB-19 is 22.5 µM (inactive); with OVCAR-3, 12.4 µM (inactive); in the experiment with RXF 393, 13.6 µM (inactive); in the experiment on NCI-H23, 31 µM (inactive); with TK-10 it was 65.5 µM (inactive); in the experiment on ACHN it was 43.4 µM (inactive). In addition, the GI50 is 10.4 µM (inactive) with M14; 40.7 µM (inactive) with SN12C; 15.8 µM (inactive) in the experiment on SK-OV-3; 25.5 µM (inactive) in the experiment on HOP-62; 26.2 µM (inactive) with Malme-3M; 58.3 µM (inactive) with UACC-257. Besides, the figures for the GI50 with HL-60 and in the experiment with SF-295 were 10.5 µM (inactive) and 3.24 µM (inactive), respectively.

With `O=C(CNC(=O)c1ccccc1)Oc1c(Cl)c(Cl)c(Cl)c(Cl)c1Cl`, the GI50 was 28.2 µM (inactive) in the experiment on SF-539; 21 µM (inactive) in the experiment on SK-MEL-2; 35 µM (inactive) in the experiment on LOX IMVI; 39 µM (inactive) in the experiment on SK-MEL-28; 28.2 µM (inactive) with K562; 21.6 µM (inactive) in the experiment with SW-620. The GI50 in the experiment with SNB-19 is 44.9 µM (inactive); with OVCAR-3 it was 25.4 µM (inactive); in the experiment with RXF 393 it was 39.4 µM (inactive); with NCI-H23, > 100 µM (inactive); with TK-10, 40.4 µM (inactive); in the experiment with ACHN, 25.2 µM (inactive). For the same compound, the GI50 in the experiment on M14 was 64.9 µM (inactive); with SN12C it was 32.1 µM (inactive); in the experiment with SK-OV-3 it was 72.4 µM (inactive); with HOP-62, 38.3 µM (inactive); in the experiment with Malme-3M it was 28.8 µM (inactive); in the experiment on UACC-257, 19.6 µM (inactive). Further, the GI50 in the experiment with HL-60 was 24.6 µM (inactive); in the experiment on SF-295, 33.2 µM (inactive).

For the compound `COc1cc([C@@H]2c3cc4c(cc3[C@@H](NC(=O)c3ccc(C#N)cc3)C3COC(=O)[C@@H]32)OCO4)cc(OC)c1O` (stereo not given in full), the GI50 was 0.249 µM (active) in the experiment on SF-539; 2.29 µM (inactive) in the experiment with SK-MEL-2; 0.26 µM (active) in the experiment on LOX IMVI; 2.43 µM (inactive) in the experiment with SK-MEL-28; 1.63 µM (inactive) with K562; 0.331 µM (active) in the experiment on SW-620. The GI50 with SNB-19 is 0.348 µM (active); in the experiment on OVCAR-3 it was 1.85 µM (inactive); in the experiment with RXF 393, 1.97 µM (inactive); in the experiment on NCI-H23 it was 0.198 µM (active); in the experiment on TK-10, 1.81 µM (inactive); in the experiment with ACHN it was 0.0914 µM (active). Also, the GI50 in the experiment with M14 was 0.721 µM (active); with SN12C, 0.207 µM (active); in the experiment on SK-OV-3, 0.374 µM (active); with HOP-62 it was 0.113 µM (active); with Malme-3M it was 0.355 µM (active); in the experiment with UACC-257, 2.58 µM (inactive). The GI50 was 0.138 µM (active) in the experiment with HL-60 and 0.233 µM (active) in the experiment with SF-295.

In the case of `COC(=O)/C=C\c1ccc2c(c1)CC1(C2)Cc2ccc(/C=C/C(=O)OC)cc2C1` (stereo not given), the GI50 with SF-539 is 30 µM (inactive); in the experiment on SK-MEL-2 it was > 10 µM (inactive); with LOX IMVI, > 31.6 µM (inactive); with SK-MEL-28, > 100 µM (inactive); with K562 it was > 31.6 µM (inactive); in the experiment on SW-620 it was > 100 µM (inactive). Also, the GI50 with SNB-19 was 27 µM (inactive); in the experiment with OVCAR-3, > 31.6 µM (inactive); in the experiment on RXF 393 it was > 31.6 µM (inactive); with NCI-H23, > 31.6 µM (inactive); in the experiment on TK-10 it was > 31.6 µM (inactive); in the experiment with ACHN, > 31.6 µM (inactive). The GI50 in the experiment on M14 was > 31.6 µM (inactive); in the experiment on SN12C, > 31.6 µM (inactive); in the experiment with SK-OV-3 it was > 31.6 µM (inactive); in the experiment with HOP-62, 15.2 µM (inactive); with Malme-3M, 29.4 µM (inactive); with UACC-257, > 31.6 µM (inactive). The GI50 in the experiment on HL-60 was > 31.6 µM (inactive); in the experiment with SF-295, 21.5 µM (inactive).

As to `C/N=c1\ss/c(=N\C(=S)N(C)C)n1-c1ccccc1`, the GI50 in the experiment with SF-539 was 31 µM (inactive); with SK-MEL-2, > 64 µM (inactive); in the experiment on LOX IMVI, > 100 µM (inactive); with SK-MEL-28, > 100 µM (inactive); with K562 it was > 100 µM (inactive); in the experiment with SW-620 it was > 100 µM (inactive). The GI50 was > 52.7 µM (inactive) in the experiment on SNB-19; > 100 µM (inactive) in the experiment on OVCAR-3; > 48.2 µM (inactive) with RXF 393; > 68.1 µM (inactive) with NCI-H23; > 100 µM (inactive) in the experiment on TK-10; > 100 µM (inactive) in the experiment with ACHN. The GI50 with M14 is > 100 µM (inactive); in the experiment with SN12C it was > 100 µM (inactive); in the experiment with SK-OV-3 it was > 100 µM (inactive); in the experiment on HOP-62 it was > 80.7 µM (inactive); in the experiment on Malme-3M it was > 100 µM (inactive); with UACC-257, > 100 µM (inactive). Besides, the GI50 in the experiment with HL-60 is > 100 µM (inactive); with SF-295, > 75.5 µM (inactive).
